Reference: paper PMC5456363 (PLoS ONE, 2017)
Where “and” joins values, the source holds several entries; their conditions need not be identical. Equal entries are not always repeated. Each block holds one compound with its values, some of them ahead of it. Non-standard residues stand in square brackets, D forms with d. Residues, ends and D or L forms follow the SMILES beside them. *: point of attachment. Orn(α-tetramethylguanidino) = CN(C)C(=N[C@@H](CCCN)C(=O)*)N(C)C

How the values were obtained:
[1] = Peptide stability in heparin plasma (HP); assay type: in vitro ADME, CD-1 mouse
Protocol: (§1) All stability tests were performed at least in triplicates.

[2] = Peptide stability in activated serum (AS); assay type: in vitro ADME, CD-1 mice
Protocol: as §1

[3] = Peptide stability in fresh blood taken by cardiac puncture into a syringe containing the peptide (blood, B); assay type: in vitro ADME, CD-1 mice
Protocol: as §1

[4] = Peptide stability in commercial serum (CS); assay type: in vitro ADME, mouse
Protocol: as §1

[5] = Peptide stability in EDTA plasma (EP); assay type: in vitro ADME, CD-1 mouse
Protocol: as §1

[6] = Stability and metabolites across fresh blood, serum and plasma (all six matrices); conditions: fresh blood, serum, and plasma
Protocol: Aqueous peptide solutions (3 g/L) were filled in a sterile syringe (1 mL, Dispomed Witt oHG, Gelnhausen, Deutschland) through the front end, the stainless-steel needle was attached, and blood (200 to 300 μL) was collected via cardiac puncture to obtain a peptide concentration of approximately 31,5 μmol/L. The syringe was carefully disconnected from the needle and sealed while keeping the needle in the heart. A second empty syringe was attached to the needle and 0.5 to 0.8 mL blood were collected. In parallel, the sealed syringe was gently shaken for one minute to mix the peptide solution with blood and further incubated on a Stuart Rotator SB3 (Barloworld, Scientific LTD, Stone, Staffordshire, U.K.) placed in an incubator at 37°C. […] The plasma sample designated as “blood” (B) was precipitated with trichloroacetic acid (TCA), as described below. Blood collected in the second syringe was transferred to a polypropylene tube (Eppendorf AG, Hamburg, Germany) and a BD Microtainer® serum separator tube (SST; Becton, Dickinson and Company). Polypropylene tubes were centrifuged immediately (12,000 x g, 2 to 4 min) to obtain “direct serum” (DS) as supernatant, whereas the serum separator tubes were incubated (room temperature, 1 h), centrifuged (12,000 x g, 2 min), and collected as “activated serum” (AS). Pooled mouse serum was purchased from PAA Laboratories GmbH (Pasching, Austria) and pooled CD-1 mouse plasma containing K2EDTA or lithium heparin were obtained from Innovative Research (Novi, MI, USA).
Peptides were mixed with serum or plasma to a final concentration of 31.5 μmol/L and incubated (37°C, 750 rpm; Thermomixer, Eppendorf AG, Hamburg, Germany). Aliquots (20 or 40 μL) taken after 0 and 60 min (0, 10 and 30 min for Api88) were mixed with TCA to obtain a final concentration of 3% (w/v) and incubated on ice (10 min). After centrifugation (12,000 x g, 5 min), the supernatant was neutralized with sodium hydroxide (1 mol/L) and stored at −20°C. Samples were analyzed by RP-HPLC on a Jupiter C18-column (internal diameter: 2 mm, length: 150 mm, particle size: 5 μm, pore size: 30 nm) using a linear aqueous acetonitrile gradient containing TFA (0.1%, v/v) as ion pair reagent. Peptides were detected by recording the absorbance at 214 nm and quantified by their peak areas relative to the initial peak areas (0 min). All stability tests were performed at least in triplicates.
Metabolites were identified on an Agilent 1100 LC system (Agilent Technologies, Santa Clara, CA, USA) coupled on-line via a UV-detector (absorbance recorded at 214 nm) to the electrospray ionization source on an ion trap mass spectrometer (ESI-IT-MS, Esquire HCT, Bruker Daltonics GmbH, Bremen, Germany). Samples were separated on an Aqua C18-column (inner diameter: 2 mm, length: 150 mm, particle size: 3 μm, pore size: 12.5 nm, Phenomenex; column temperature: 60°C) at a flow rate of 0.2 mL/min using a linear gradient of aqueous acetonitrile in the presence of formic acid (FA; 0.1%, v/v) as ion pair reagent. […] The ESI-IT-MS was operated in positive ion mode. Ionization was carried out at 365°C (source temperature) using nitrogen as curtain gas (40 psi) and dry gas (9 L/min). Mass spectra were acquired for an m/z range from 400 to 1300 at a scan rate of 8100 m/z-units per second in standard enhanced mode.

[7] = Peptide stability in direct serum (DS); assay type: in vitro ADME, CD-1 mice
Protocol: as §1

[8] = parameters: method as in PMID 27067364; conditions: 25% aqueous commercial serum; cited from earlier work
human α-thrombin [9] = target: T1, human α-thrombin (Homo sapiens, UniProt P00734); assay: α-Thrombin stability assay; assay type: in vitro ADME
T1 construct: with human α-Thrombin for 0, 1, and 24 hours
Protocol: Supplementary file pone.0178943.s003.tif: S3 Fig Stability of Api88, Api137, and LVPR-Onc112 against human α-thrombin. Chromatograms recorded after incubation of Api88 (a), Api137 (b), or LVPR-Onc112 (c) with human α-Thrombin for 0, 1, and 24 hours (UV absorbance). […] (TIF) Click here for additional data file.
S1 Text. Method α-Thrombin stability assay.

[10] = in vitro, mouse serum; cited from earlier work
[11] = “activated serum” (AS): serum separator tubes incubated (room temperature, 1 h), centrifuged; conditions: CD-1 mice, 37°C, up to 60 min
[12] = pooled CD-1 mouse plasma containing K2EDTA (EDTA plasma, EP); conditions: 37°C, up to 60 min
[13] = “direct serum” (DS): blood in polypropylene tubes centrifuged immediately; conditions: CD-1 mice, 37°C, up to 60 min
[14] = 25% aqueous commercial serum; conditions: cited from earlier work
[15] = pooled CD-1 mouse plasma containing lithium heparin (heparin plasma, HP); conditions: 37°C, up to 60 min
[16] = blood collected via cardiac puncture into a syringe containing the peptide solution (“blood”, B); conditions: CD-1 mice, 37°C, up to 60 min
[17] = Pooled mouse serum (PAA Laboratories), commercial serum (CS); conditions: 37°C, up to 60 min
human α-thrombin [18] = assay: human α-thrombin; conditions: up to 24 hours

Compound: CC[C@H](C)[C@H](NC(=O)[C@@H](CCCNC(=N)N)NC(=O)[C@H](CCCNC(=N)N)NC(=O)[C@@H]1CCCN1C(=O)[C@@H]1CCCN1C(=O)[C@H](CCCNC(=N)N)NC(=O)[C@@H]1CCCN1C(=O)[C@H](CCCNC(=N)N)NC(=O)[C@@H]1CCCN1C(=O)[C@H](CC(C)C)NC(=O)[C@H](Cc1ccc(O)cc1)NC(=O)[C@@H]1CCCN1C(=O)[C@@H]1CCCN1C(=O)[C@H](CCCCN)NC(=O)[C@H](CC(=O)O)NC(=O)[C@@H](NC(=O)[C@H](CCCNC(=N)N)NC(=O)[C@H](Cc1ccc(O)cc1)NC(=O)[C@H](C)NC(=O)[C@H](C)N)C(C)C)C(=O)N[C@@H](Cc1ccc(O)cc1)C(=O)N[C@@H](CC(N)=O)C(=O)N[C@H](CCCNC(=N)N)C(N)=O [AAYR-Onc112, AAYRVDKPPYLPRPRPPRrIYNr-NH2] (H-AAYRVDKPPYLPRPRPPR[dR]IYN[dR]-NH2)
- Onc112 released relative to initial prodrug ([1]; 1 h): 35 ± 4%
- Onc112 released relative to initial prodrug ([2]; 1 h): < 3%
- Onc112 released relative to initial prodrug ([3]; blood, 1 h): < 3%
- Onc112 released relative to initial prodrug ([4]; commercial serum, 1 h): 13 ± 2%
- prodrug expected to be present in full serum ([4]; extrapolated from 25% serum data assuming three-fold faster degradation in full serum): 5%
- Onc112 released relative to initial prodrug ([5]; 1 h): 40 ± 4%
- Overall stability [6]: Low
- Sequential stability [6]: Blood = Plasma = Serum
- Onc112 released relative to initial prodrug ([7]; 1 h): < 3%
- Onc112 released from linker peptide [8]: 85%

Compound: AAYRVDKPPYLPRPRPPRrIYNr-NH2 (H-AAYRVDKPPYLPRPRPPR[dR]IYN[dR]-NH2; SMILES CC[C@H](C)[C@H](NC(=O)[C@@H](CCCNC(=N)N)NC(=O)[C@H](CCCNC(=N)N)NC(=O)[C@@H]1CCCN1C(=O)[C@@H]1CCCN1C(=O)[C@H](CCCNC(=N)N)NC(=O)[C@@H]1CCCN1C(=O)[C@H](CCCNC(=N)N)NC(=O)[C@@H]1CCCN1C(=O)[C@H](CC(C)C)NC(=O)[C@H](Cc1ccc(O)cc1)NC(=O)[C@@H]1CCCN1C(=O)[C@@H]1CCCN1C(=O)[C@H](CCCCN)NC(=O)[C@H](CC(=O)O)NC(=O)[C@@H](NC(=O)[C@H](CCCNC(=N)N)NC(=O)[C@H](Cc1ccc(O)cc1)NC(=O)[C@H](C)NC(=O)[C@H](C)N)C(C)C)C(=O)N[C@@H](Cc1ccc(O)cc1)C(=O)N[C@@H](CC(N)=O)C(=O)N[C@H](CCCNC(=N)N)C(N)=O)
- fragment found [11]: 5–23 [Onc112]; VDKPPYLPRPRPPRrIYNr-NH2
- fragment found [12]: 5–23 [Onc112]; VDKPPYLPRPRPPRrIYNr-NH2
- fragment found [13]: 5–23 [Onc112]; VDKPPYLPRPRPPRrIYNr-NH2
- fragment found [14]: Onc112
- fragment found [15]: 5–23 [Onc112]; VDKPPYLPRPRPPRrIYNr-NH2
- fragment found [16]: 5–23 [Onc112]; VDKPPYLPRPRPPRrIYNr-NH2
- fragment found [17]: 5–23 [Onc112]; VDKPPYLPRPRPPRrIYNr-NH2

Compound: LVPRVDKPPYLPRPRPPRrIYNr-NH2 (H-LVPRVDKPPYLPRPRPPR[dR]IYN[dR]-NH2; SMILES CC[C@H](C)[C@H](NC(=O)[C@@H](CCCNC(=N)N)NC(=O)[C@H](CCCNC(=N)N)NC(=O)[C@@H]1CCCN1C(=O)[C@@H]1CCCN1C(=O)[C@H](CCCNC(=N)N)NC(=O)[C@@H]1CCCN1C(=O)[C@H](CCCNC(=N)N)NC(=O)[C@@H]1CCCN1C(=O)[C@H](CC(C)C)NC(=O)[C@H](Cc1ccc(O)cc1)NC(=O)[C@@H]1CCCN1C(=O)[C@@H]1CCCN1C(=O)[C@H](CCCCN)NC(=O)[C@H](CC(=O)O)NC(=O)[C@@H](NC(=O)[C@H](CCCNC(=N)N)NC(=O)[C@@H]1CCCN1C(=O)[C@@H](NC(=O)[C@@H](N)CC(C)C)C(C)C)C(C)C)C(=O)N[C@@H](Cc1ccc(O)cc1)C(=O)N[C@@H](CC(N)=O)C(=O)N[C@H](CCCNC(=N)N)C(N)=O)
- fragment found [11]: LVPR-Onc112(4–23); RVDKPPYLPRPRPPRrIYNr-NH2, minor and 5–23 [Onc112]; VDKPPYLPRPRPPRrIYNr-NH2
- fragment found [12]: LVPR-Onc112(4–23); RVDKPPYLPRPRPPRrIYNr-NH2, minor and 5–23 [Onc112]; VDKPPYLPRPRPPRrIYNr-NH2
- fragment found [13]: LVPR-Onc112(4–23); RVDKPPYLPRPRPPRrIYNr-NH2, minor and 5–23 [Onc112]; VDKPPYLPRPRPPRrIYNr-NH2
- fragment found [14]: Onc112
- fragment found [15]: LVPR-Onc112(4–23); RVDKPPYLPRPRPPRrIYNr-NH2, minor and 5–23 [Onc112]; VDKPPYLPRPRPPRrIYNr-NH2
- fragment found [16]: LVPR-Onc112(4–23); RVDKPPYLPRPRPPRrIYNr-NH2 and 5–23 [Onc112]; VDKPPYLPRPRPPRrIYNr-NH2
- fragment found [17]: LVPR-Onc112(4–23); RVDKPPYLPRPRPPRrIYNr-NH2, minor and 5–23 [Onc112]; VDKPPYLPRPRPPRrIYNr-NH2
- cleaved bond (human α-thrombin [18]): C-terminal to Arg4 in LVPR-Onc112

Now from value to compound, other results behind:

- remaining at 10 min, 31.5 μmol/L ([1]; CD-1, mouse, pooled plasma containing lithium heparin, 37°C, 10 min, read-out: intact peptide remaining relative to time zero): 77 ± 5%
- remaining at 0.5 h, 31.5 μmol/L ([1]; CD-1, mouse, pooled plasma containing lithium heparin, 37°C, 30 min, read-out: intact peptide remaining relative to time zero): 36 ± 1%
- intact peptide remaining relative to time zero ([2]; 37°C, 30 min): fully degraded
- remaining at 10 min, 31.5 μmol/L ([2]; CD-1, mouse, 37°C, 10 min, read-out: intact peptide remaining relative to time zero): 22 ± 5%
- half-life at 31.5 μmol/L ([3]; CD-1, mouse, fresh whole blood taken by cardiac puncture, indicated by the recovery after 10 min, read-out: half-life time in fresh mouse blood (converted)): ~1 h
- remaining at 10 min ([3]; CD-1, mouse, fresh whole blood, blood, 37°C, 10 min, read-out: intact peptide remaining relative to time zero): 88 ± 14%
- remaining at 0.5 h ([3]; CD-1, mouse, fresh whole blood, blood, 37°C, 30 min, read-out: intact peptide remaining relative to time zero): 30 ± 14%
- half-life time in fresh mouse blood relative to that reported for serum ([3]; blood versus reported serum half-life): 30 fold
- intact peptide remaining relative to time zero ([3]; blood, 37°C, 10 min): 88 ± 15%
- intact peptide remaining relative to time zero ([4]; commercial serum, 37°C, 30 min): fully degraded
- remaining at 10 min, 31.5 μmol/L ([4]; mouse, commercial pooled serum, commercial serum, 37°C, 10 min, read-out: intact peptide remaining relative to time zero): 10 ± 2%
- remaining at 10 min, 31.5 μmol/L ([5]; CD-1, mouse, pooled plasma containing K2EDTA, 37°C, 10 min, read-out: intact peptide remaining relative to time zero): 48 ± 4%
- remaining at 0.5 h, 31.5 μmol/L ([5]; CD-1, mouse, pooled plasma containing K2EDTA, 37°C, 30 min, read-out: intact peptide remaining relative to time zero): 5 ± 3%
- proteolytic cleavage by human α-thrombin (human α-thrombin [9]; after one hour): completely degraded
- Overall stability [6]: Low
- Sequential stability [6]: Blood > Plasma > Serum
- intact peptide remaining relative to time zero ([7]; 37°C, 30 min): fully degraded
- remaining at 10 min, 31.5 μmol/L ([7]; CD-1, mouse, direct serum (supernatant of blood centrifuged immediately), 37°C, 10 min, read-out: intact peptide remaining relative to time zero): 11 ± 6%
Compound: CC[C@H](C)[C@H](NC(=O)[C@H](Cc1ccc(O)cc1)NC(=O)[C@@H](NC(=O)[C@@H]1CCCN1C(=O)[C@H](CCCNC(=N)N)NC(=O)[C@H](CC(N)=O)NC(=O)[C@H](CC(N)=O)NC(=O)[C@H](CCCN)N=C(N(C)C)N(C)C)C(C)C)C(=O)N1CCC[C@H]1C(=O)N[C@@H](CCCNC(=N)N)C(=O)N1CCC[C@H]1C(=O)N[C@@H](CCCNC(=N)N)C(=O)N1CCC[C@H]1C(=O)N1CCC[C@H]1C(=O)N[C@@H](Cc1c[nH]cn1)C(=O)N1CCC[C@H]1C(=O)N[C@@H](CCCNC(=N)N)C(=O)N[C@@H](CC(C)C)C(N)=O [Api88, gu-ONNRPVYIPRPRPPHPRL-NH2] ({Orn(α-tetramethylguanidino)}-NNRPVYIPRPRPPHPRL-NH2)

- remaining at 1 h, 31.5 μmol/L ([1]; CD-1, mouse, pooled plasma containing lithium heparin, 37°C, 1 h, 31.5 μmol/L, read-out: intact peptide remaining relative to time zero): 83 ± 2%
- intact peptide remaining relative to time zero ([2]; 37°C, 1 h, 31.5 μmol/L): ≥ 94%
- remaining at 1 h, 31.5 μmol/L ([4]; commercial pooled serum, commercial mouse serum, 37°C, 1 h, 31.5 μmol/L, read-out: intact peptide remaining relative to time zero): 87 ± 9%
- intact peptide remaining relative to time zero ([5]; 37°C, 1 h, 31.5 μmol/L): ≥ 94%
- proteolytic cleavage by human α-thrombin (human α-thrombin [9]; after 24 h): remained mostly intact
- Overall stability [6]: High
- Sequential stability [6]: Blood = Plasma = Serum
- intact peptide remaining relative to time zero ([7]; 37°C, 1 h, 31.5 μmol/L): ≥ 94%
Compound: CC[C@H](C)[C@H](NC(=O)[C@H](Cc1ccc(O)cc1)NC(=O)[C@@H](NC(=O)[C@@H]1CCCN1C(=O)[C@H](CCCNC(=N)N)NC(=O)[C@H](CC(N)=O)NC(=O)[C@H](CC(N)=O)NC(=O)[C@H](CCCN)N=C(N(C)C)N(C)C)C(C)C)C(=O)N1CCC[C@H]1C(=O)N[C@@H](CCCNC(=N)N)C(=O)N1CCC[C@H]1C(=O)N[C@@H](CCCNC(=N)N)C(=O)N1CCC[C@H]1C(=O)N1CCC[C@H]1C(=O)N[C@@H](Cc1c[nH]cn1)C(=O)N1CCC[C@H]1C(=O)N[C@@H](CCCNC(=N)N)C(=O)N[C@@H](CC(C)C)C(=O)O [Api137, gu-ONNRPVYIPRPRPPHPRL-OH] ({Orn(α-tetramethylguanidino)}-NNRPVYIPRPRPPHPRL-OH)
- half-life time in mouse serum [10]: 6 h
